Measurements taken from publication PMC7930822, “Phase I Trial to Evaluate the Tolerance, Pharmacokinetics and Efficacy of the Broad-Spectrum ErbB Family Inhibitor Larotinib Mesylate in Patients With Advanced Solid Tumors” (Frontiers in Pharmacology, 2021).
Where a name gives a salt, the structure may show the parent alone. Read-outs that look alike come from different tables or passages of the source.

Assay: phase I plasma pharmacokinetics (non-compartmental, LC-MS/MS)
Type: in vivo, human
Details: for AUC(0-t) / AUC(0-inf) / Cmax / half-life / Tmax / Vd/F: human, plasma, po
Protocol: This was a phase I, single-center, open-label, dose-escalation study conducted at First Hospital of Jilin University, China (registration no.: ChiCTR-OPC-15007153 registered at http://www.chictr.org.cn). Larotinib mesylate hard capsules were produced and supplied by Sunshine Lake Pharma Co., Ltd (Guangdong Province, China) in different unit doses of […] under GMP condition. Seven dose levels were designed in the study: 50, 100, 150, 220, 300, 350, and 400 mg with administration stages labeled cycle 0, cycle 1, and subsequent treatment cycles. Patients received an oral single dose of larotinib mesylate after fasting during a 6-days cycle 0 to evaluate the tolerance and pharmacokinetic characteristics. After cycle 0, larotinib mesylate was continuously administered once daily for 28 days in cycle 1, and the tolerance and pharmacokinetic characteristics of multiple doses were evaluated (Figure 2). The patients who […] disease control (complete response [CR], partial response [PR], or stable disease [SD]) at the end of cycle one were permitted to participate in the subsequent 28-days treatment cycles until progressive disease (PD) or intolerance was observed.
Blood samples (4 ml) for pharmacokinetic analyses were collected in tubes containing K2EDTA anticoagulant. Blood samples were centrifuged at 3,000 rpm for 10 min at 4°C and stored at –80°C until liquid chromatography-mass spectrophotometry (LC-MS/MS) analysis. Urine and fecal samples were collected only when patients were given the150-mg and 220-mg dose levels at sampling time intervals of 0–4, 4–8, 8–12, 12–24, 24–48, 48–72, 72–96 and 96–120 h in cycle 0.
Linear mixed effects model was used to explore the dose exposure relationships. Dose proportionality was concluded if the 95% confidence interval (CI) of the linear regression slope was completely contained within the decision interval (1 + ln (0.8)/ln (8)∼1 + ln (1.25)/ln (8)). For urine and fecal data, the accumulative excretion rates of larotinib and M5 were calculated.
Bioanalysis was performed at Frontage Company (Shanghai, China). Validated high-performance LC-MS/MS method was used to quantify the concentrations of larotinib and M5 in plasma, urine and feces samples. Protein precipitation was employed for plasma, urine and feces processing. Plasma larotinib and M5 concentrations were determined using appropriate calibration curves obtained from standards in the range of 0.5–1,000 ng/ml. The interassay precision of the analysis method were 4.2–5.4% for larotinib and 3.9–4.3% for M5. The interassay accuracy of the analysis method were 100.4–103.4% for larotinib and 102.2–102.9% for M5, respectively.
Statistical analyses were performed using SAS software, version 9.2 (SAS Institute Inc., United States). Descriptive statistics were used to summarize continuous variables as cases, means with standard deviations (SDs), medians, quartiles, maximums and minimums. For categorical variables, frequencies and percentages were used. A linear mixed effects model, relating log-transformed Cmax and AUC parameters to log-transformed dose, was used to investigate dose proportionality.

COc1cc2ncnc(Nc3ccc(F)c(Cl)c3)c2cc1OCCCN1C[C@@H]2OCCO[C@@H]2C1 [larotinib mesylate]
linearity of pharmacokinetics (50–400 mg): No clear linear pharmacokinetic characteristic | time to steady state (continuous once daily administration): 8 days | AUC(0-t) (50 mg, multiple oral administration, 50 mg larotinib mesylate, steady state, read-out: AUC0-t,ss, mean (min–max)): 3570 ng·h/mL | AUC(0-inf) (50 mg, multiple oral administration, 50 mg larotinib mesylate, steady state, read-out: AUC0-∞,ss, mean (min–max)): 4920 ng·h/mL | Cmax (50 mg, multiple oral administration, 50 mg larotinib mesylate, steady state, read-out: Cmax,ss, mean (min–max)): 67.5 ng/mL | half-life (50 mg, multiple oral administration, 50 mg larotinib mesylate, steady state, read-out: T1/2,ss, mean (min–max) (converted)): 61.2 h | Tmax (50 mg, multiple oral administration, 50 mg larotinib mesylate, steady state, read-out: Tmax,ss, median (min–max)): 5 h | Vd/F (50 mg, multiple oral administration, 50 mg larotinib mesylate, steady state, read-out: Vz/F,ss, mean (min–max)): 921 L | AUC(0-t) (50 mg, single oral administration, 50 mg larotinib mesylate, read-out: AUC0-24, mean (min–max)): 245 ng·h/mL | AUC(0-t) (50 mg, single oral administration, 50 mg larotinib mesylate, read-out: AUC0-t, mean (min–max)): 635 ng·h/mL | AUC(0-inf) (50 mg, single oral administration, 50 mg larotinib mesylate, read-out: AUC0-∞, mean (min–max)): 817 ng·h/mL | Cmax (50 mg, single oral administration, 50 mg larotinib mesylate, read-out: Cmax, mean (min–max)): 17.4 ng/mL | half-life (50 mg, single oral administration, 50 mg larotinib mesylate, read-out: T1/2, mean (min–max) (converted)): 56.7 h | Tmax (50 mg, single oral administration, 50 mg larotinib mesylate, read-out: Tmax, median (min–max)): 6 h | Vd/F (50 mg, single oral administration, 50 mg larotinib mesylate, read-out: Vz/F, mean (min–max)): 5070 L | AUC(0-t) (100 mg, multiple oral administration, 100 mg larotinib mesylate, steady state, read-out: AUC0-t,ss, mean (min–max)): 4480 ng·h/mL | AUC(0-inf) (100 mg, multiple oral administration, 100 mg larotinib mesylate, steady state, read-out: AUC0-∞,ss, mean (min–max)): 5200 ng·h/mL | Cmax (100 mg, multiple oral administration, 100 mg larotinib mesylate, steady state, read-out: Cmax,ss, mean (min–max)): 131 ng/mL | half-life (100 mg, multiple oral administration, 100 mg larotinib mesylate, steady state, read-out: T1/2,ss, mean (min–max) (converted)): 44.8 h | Tmax (100 mg, multiple oral administration, 100 mg larotinib mesylate, steady state, read-out: Tmax,ss, median (min–max)): 5 h | Vd/F (100 mg, multiple oral administration, 100 mg larotinib mesylate, steady state, read-out: Vz/F,ss, mean (min–max)): 1400 L | AUC(0-t) (100 mg, single oral administration, 100 mg larotinib mesylate, read-out: AUC0-24, mean (min–max)): 653 ng·h/mL | AUC(0-t) (100 mg, single oral administration, 100 mg larotinib mesylate, read-out: AUC0-t, mean (min–max)): 1240 ng·h/mL | AUC(0-inf) (100 mg, single oral administration, 100 mg larotinib mesylate, read-out: AUC0-∞, mean (min–max)): 1390 ng·h/mL | Cmax (100 mg, single oral administration, 100 mg larotinib mesylate, read-out: Cmax, mean (min–max)): 64.1 ng/mL | half-life (100 mg, single oral administration, 100 mg larotinib mesylate, read-out: T1/2, mean (min–max) (converted)): 43.9 h | Tmax (100 mg, single oral administration, 100 mg larotinib mesylate, read-out: Tmax, median (min–max)): 5 h | Vd/F (100 mg, single oral administration, 100 mg larotinib mesylate, read-out: Vz/F, mean (min–max)): 4580 L | AUC(0-t) (150 mg, multiple oral administration, 150 mg larotinib mesylate, steady state, read-out: AUC0-t,ss, mean (min–max)): 18200 ng·h/mL | AUC(0-inf) (150 mg, multiple oral administration, 150 mg larotinib mesylate, steady state, read-out: AUC0-∞,ss, mean (min–max)): 24600 ng·h/mL | Cmax (150 mg, multiple oral administration, 150 mg larotinib mesylate, steady state, read-out: Cmax,ss, mean (min–max)): 371 ng/mL | half-life (150 mg, multiple oral administration, 150 mg larotinib mesylate, steady state, read-out: T1/2,ss, mean (min–max) (converted)): 61.2 h | Tmax (150 mg, multiple oral administration, 150 mg larotinib mesylate, steady state, read-out: Tmax,ss, median (min–max)): 5 h | Vd/F (150 mg, multiple oral administration, 150 mg larotinib mesylate, steady state, read-out: Vz/F,ss, mean (min–max)): 564 L | AUC(0-t) (150 mg, single oral administration, 150 mg larotinib mesylate, read-out: AUC0-24, mean (min–max)): 1990 ng·h/mL | AUC(0-t) (150 mg, single oral administration, 150 mg larotinib mesylate, read-out: AUC0-t, mean (min–max)): 4780 ng·h/mL | AUC(0-inf) (150 mg, single oral administration, 150 mg larotinib mesylate, read-out: AUC0-∞, mean (min–max)): 5660 ng·h/mL | Cmax (150 mg, single oral administration, 150 mg larotinib mesylate, read-out: Cmax, mean (min–max)): 150 ng/mL | half-life (150 mg, single oral administration, 150 mg larotinib mesylate, read-out: T1/2, mean (min–max) (converted)): 39.3 h | Tmax (150 mg, single oral administration, 150 mg larotinib mesylate, read-out: Tmax, median (min–max)): 5 h | Vd/F (150 mg, single oral administration, 150 mg larotinib mesylate, read-out: Vz/F, mean (min–max)): 1650 L | AUC(0-t) (220 mg, multiple oral administration, 220 mg larotinib mesylate, steady state, read-out: AUC0-t,ss, mean (min–max)): 30200 ng·h/mL | AUC(0-inf) (220 mg, multiple oral administration, 220 mg larotinib mesylate, steady state, read-out: AUC0-∞,ss, mean (min–max)): 43600 ng·h/mL | Cmax (220 mg, multiple oral administration, 220 mg larotinib mesylate, steady state, read-out: Cmax,ss, mean (min–max)): 553 ng/mL | half-life (220 mg, multiple oral administration, 220 mg larotinib mesylate, steady state, read-out: T1/2,ss, mean (min–max) (converted)): 75.7 h | Tmax (220 mg, multiple oral administration, 220 mg larotinib mesylate, steady state, read-out: Tmax,ss, median (min–max)): 6 h | Vd/F (220 mg, multiple oral administration, 220 mg larotinib mesylate, steady state, read-out: Vz/F,ss, mean (min–max)): 553 L | AUC(0-t) (220 mg, single oral administration, 220 mg larotinib mesylate, read-out: AUC0-24, mean (min–max)): 3100 ng·h/mL | AUC(0-t) (220 mg, single oral administration, 220 mg larotinib mesylate, read-out: AUC0-t, mean (min–max)): 6360 ng·h/mL | AUC(0-inf) (220 mg, single oral administration, 220 mg larotinib mesylate, read-out: AUC0-∞, mean (min–max)): 8090 ng·h/mL | Cmax (220 mg, single oral administration, 220 mg larotinib mesylate, read-out: Cmax, mean (min–max)): 278 ng/mL | half-life (220 mg, single oral administration, 220 mg larotinib mesylate, read-out: T1/2, mean (min–max) (converted)): 68.2 h | Tmax (220 mg, single oral administration, 220 mg larotinib mesylate, read-out: Tmax, median (min–max)): 5 h | Vd/F (220 mg, single oral administration, 220 mg larotinib mesylate, read-out: Vz/F, mean (min–max)): 2720 L | AUC(0-t) (300 mg, multiple oral administration, 300 mg larotinib mesylate, steady state, read-out: AUC0-t,ss, mean (min–max)): 17900 ng·h/mL | AUC(0-inf) (300 mg, multiple oral administration, 300 mg larotinib mesylate, steady state, read-out: AUC0-∞,ss, mean (min–max)): 22600 ng·h/mL | Cmax (300 mg, multiple oral administration, 300 mg larotinib mesylate, steady state, read-out: Cmax,ss, mean (min–max)): 438 ng/mL | half-life (300 mg, multiple oral administration, 300 mg larotinib mesylate, steady state, read-out: T1/2,ss, mean (min–max) (converted)): 54.3 h
